Laboratory results from article PMC8151276, “An Integrated Approach toward NanoBRET Tracers for Analysis of GPCR Ligand Engagement” (Molecules, 2021).

Biological target: T1, HTR1F (Homo sapiens, UniProt P30939)
T1 construct: purchased Promega (in-house HiBiT-GPCR construct library, NanoBRET)
T1 sequence (P30939 1-366): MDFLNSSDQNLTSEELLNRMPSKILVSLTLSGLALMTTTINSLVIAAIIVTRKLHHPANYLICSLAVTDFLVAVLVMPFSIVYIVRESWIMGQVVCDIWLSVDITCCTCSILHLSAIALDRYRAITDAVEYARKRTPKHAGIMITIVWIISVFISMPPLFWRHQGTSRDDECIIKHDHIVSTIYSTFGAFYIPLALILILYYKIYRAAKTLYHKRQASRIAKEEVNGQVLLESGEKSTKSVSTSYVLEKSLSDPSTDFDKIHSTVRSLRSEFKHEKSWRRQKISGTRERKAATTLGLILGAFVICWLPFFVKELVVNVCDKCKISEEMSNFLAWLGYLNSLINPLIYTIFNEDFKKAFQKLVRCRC
Test: NanoBRET screen HiBiT-HTR1F in HEK293
Format: binding
Protocol: Each tracer candidate was screened across the entire library of HiBiT-GPCR constructs using NanoBRET as the detection modality. As depicted in Figure 4A, the specificity of interactions was evaluated through decrease in BRET due to competitive displacement of a bound tracer by excess parental compound. Each tracer was analyzed for binding to each HiBiT-GPCR fusion in the absence and in the presence of competing parental compound. Briefly, HEK293 cells were transfected with HiBiT-GPCR constructs diluted into promoterless DNA to reduce expression and maximize translocation to the cell surface. Each tracer candidate was then screened at concentrations of 1 μM and 0.1 μM across cells expressing these fusions. Cells were treated for 1.5 h with tracer either alone or in the presence of 20 μM competing parental compound (i.e., control). BRET was measured upon addition of purified LgBiT and subsequent complementation with HiBiT genetically fused to a GPCR. The specificity of interactions was assessed through a decrease in BRET signal due to competitive displacement of the bound tracer. To further gauge the robustness of these interactions, the fold response over the control (i.e., BRETtracer/BRETcontrol) was calculated. We chose a 1.5-fold response, which translates to ≥7-fold signal over noise as the minimal threshold required to score an interaction as positive.
HiBiT-GPCR DNA constructs were diluted in 10 mM Tris pH 8 to a final concentration of 0.01 μg/μL, arrayed in 96-well plates and stored at −20 °C. For transfection, HEK293 cells were suspended in Opti-MEM (without phenol red) supplemented with 2% fetal bovine serum (Seradigm) and 100 units/mL penicillin–streptomycin (Gibco) at a final concentration of 220,000 cells/mL and dispensed into white 96-well plates at 90 μL/well. Subsequent transfections and screens were carried using an Agilent Bravo Automated Liquid Handling Platform. First, the 96-well HiBiT DNA arrays were diluted 25-fold in Opti-MEM (without serum or phenol red) to a final concentration of 0.0004 μg/μL and 20 μL of the diluted DNAs were transferred into new 96-well plates. Next, promoterless carrier DNA (1 μg/μL) was diluted 25-fold (0.04 μg/μL) and then dispensed into the diluted arrays at 20 μL/well. Following brief mixing, Viafect transfection reagent (Promega) diluted 16-fold into Opti-MEM was dispensed into the plates at 40 μL/well. After mixing by pipetting, plates were incubated for 10 min on the pipetting station deck. The DNA-transfection reagent complexes were then added to plates containing cells. To facilitate the screen, 10 μL of DNA-transfection reagent complexes were added in duplicates to the top 4 and bottom 4 rows, resulting in two identical 48-well arrays per plate. Plates with transfected cells were incubated for 18–20 h at 37 °C/5% CO2. A screen of each tracer across the entire library using two different concentrations requires duplicate plates of transfected cells. Depending on the number of tracers being screened, transfections can be scaled up using the same ratios. The next day, for each tracer, four 20× screening solutions in tracer dilution buffer (Promega) were prepared: two duplicates at final concentration of 20 μM and two duplicates at a final concentration of 2 μM. […] The four resulting solutions were diluted 4-fold in Opti-MEM without serum or phenol red to generate 5× solutions (5 µM and 0.5 µM tracer +/− 100 μM competing compound). To screen the library, a BioTek MultiFlo FX liquid dispenser was used to dispense 22.5 µL of tracer solution to the top 4 rows and 22.5 µL tracer + competing compound solution to the 4 bottom rows. Plates were briefly mixed on an orbital shaker and incubated for 1.5 h at room temperature. […] Plates were briefly mixed on an orbital shaker and incubated for 15 min to allow complementation.

SMILES | NanoBRET Fold Response (HTR1F, tracer 0.1μM) | NanoBRET Fold Response (HTR1F, tracer 1μM) | also measured
CCOC(=O)c1cc(C#N)c(N2CCC(C(=O)NS(=O)(=O)Cc3ccccc3/C=C/C(=O)NCCNC(=O)CCc3ccc4n3[B-](F)(F)[N+]3=C(c5ccc[nH]5)C=CC3=C4)CC2)nc1C [AZD1283-1-NB590] | – | – | NanoBRET Fold Response (HTR1F, 0.1μM): 1.04; NanoBRET Fold Response (HTR1F, 1μM): 1.02
N#CN/C(=N\CCNC(=O)c1ccc(N)cc1)NCCCOc1cccc(CN2CCCCC2)c1 [Aminopotentidine (unmodified)] | – | – | NanoBRET Fold Response (HTR1F, other tracers/Aminopotentidine (unmodified), 0.1μM): 1.04; NanoBRET Fold Response (HTR1F, other tracers/Aminopotentidine (unmodified), 1μM): 1.21
N#CN=C(NCCCOc1cccc(CN2CCCCC2)c1)NCCNC(=O)CCOCCOCCOCCOCCNC(=O)CCc1ccc2n1[B-](F)(F)[N+]1=C(c3ccc[nH]3)C=CC1=C2 [Aminopotentidine-2-NB590] | 1.07 | 1.05 | –
CN(C)CCC=C1c2ccccc2CCc2ccc(C(=O)NCCNC(=O)CCOCCOCCOCCOCCNC(=O)CCc3ccc4n3[B-](F)(F)[N+]3=C(c5ccc[nH]5)C=CC3=C4)cc21 [Amitriptyline-a-2-NB590] | – | – | NanoBRET Fold Response (tracer at 0.1μM): 0.97; NanoBRET Fold Response (tracer at 1μM): 1.02
CN(C)CCC=C1c2ccccc2CCc2ccc(C(=O)NCCNC(=O)CCOCCOCCOCCOCCNC(=O)CCc3ccc4n3[B-](F)(F)[N+]3=C(c5ccc[nH]5)C=CC3=C4)cc21 [Amitriptyline-b-2-NB590] | – | – | NanoBRET Fold Response (tracer at 0.1μM, listed as amitriptyline-b-2-NB590): 1.43
CN(CCC=C1c2ccccc2CCc2ccccc21)C(=O)CCOCCOCCOCCOCCNC(=O)CCc1ccc2n1[B-](F)(F)[N+]1=C(c3ccc[nH]3)C=CC1=C2 [Amitriptyline-e-2-NB590] | – | – | NanoBRET Fold Response (tracer at 1μM): 1.02
COc1ccc2c(n1)c(CCNC(C)=O)cn2CCNC(=O)CCc1ccc2n1[B-](F)(F)[N+]1=C(c3ccc[nH]3)C=CC1=C2 [Azamelatonin-1-NB590] | – | – | NanoBRET Fold Response (0.1μM tracer): 0.79; NanoBRET Fold Response (1μM tracer): 0.79
COc1ccc2[nH]c(-c3ccc(CNC(=O)CCOCCOCCOCCOCCNC(=O)CCc4ccc5n4[B-](F)(F)[N+]4=C(c6ccc[nH]6)C=CC4=C5)cc3)c(CCNC(C)=O)c2n1 [AzomelatoninICO9-2-NB590] | – | – | NanoBRET Fold Response (0.1μM tracer): 0.92; NanoBRET Fold Response (1μM tracer): 0.95
O=C(CCOCCOCCOCCOCCNC(=O)CCc1ccc2n1[B-](F)(F)[N+]1=C(c3ccc[nH]3)C=CC1=C2)NCCCN1CCN(C2=Nc3cc(Cl)ccc3Nc3ccccc32)CC1 [Clozapine-a-2-NB590] | – | – | NanoBRET Fold Response (HTR1F, 0.1μM tracer): 1.77; NanoBRET Fold Response (HTR1F, 1μM tracer): 2.34
CN1CCN(C2=Nc3cc(Cl)ccc3Nc3ccc(CNC(=O)CCOCCOCCOCCOCCNC(=O)CCc4ccc5n4[B-](F)(F)[N+]4=C(c6ccc[nH]6)C=CC4=C5)cc32)CC1 [Clozapine-b-2-NB590] | – | – | NanoBRET Fold Response (HTR1F, 0.1μM tracer): 1.00; NanoBRET Fold Response (HTR1F, 1μM tracer): 1.28
CN1CCN(C2=Nc3cc(Cl)ccc3N(CC(=O)NCCOCCOCCOCCOCCNC(=O)CCc3ccc4n3[B-](F)(F)[N+]3=C(c5ccc[nH]5)C=CC3=C4)c3ccccc32)CC1 [Clozapine-c-2-NB590] | – | – | NanoBRET Fold Response (HTR1F, 0.1μM tracer): 1.02; NanoBRET Fold Response (HTR1F, 1μM tracer): 0.91
O=C(CCOCCOCCOCCOCCNC(=O)CCc1ccc2n1[B-](F)(F)[N+]1=C(c3ccc[nH]3)C=CC1=C2)NCCCN1CCN(C2=Nc3ccccc3Oc3ccc(Cl)cc32)CC1 [Loxapine-a-2-NB590] | 1.01 | 1.07 | –
COc1ccccc1N1CCN(CCCCN2C(=O)c3ccc(CNC(=O)CCOCCOCCOCCOCCNC(=O)CCc4ccc5n4[B-](F)(F)[N+]4=C(c6ccc[nH]6)C=CC4=C5)cc3C2=O)CC1 [NAN-190-2-NB590] | 1.29 | 2.39 | –
COc1ccccc1N1CCN(CCCCN2C(=O)c3ccc(CNC(=O)CCOCCNC(=O)c4ccc(CNC(=O)CCc5ccc6n5[B-](F)(F)[N+]5=C(c7ccc[nH]7)C=CC5=C6)cc4)cc3C2=O)CC1 [NAN-190-3-NB590] | 2.92 | 1.93 | –
O=C(CCc1ccc2n1[B-](F)(F)[N+]1=C(c3ccc[nH]3)C=CC1=C2)NCc1ccc(C(=O)NCCOCCC(=O)N[C@@H]2CC[C@@]3(O)[C@H]4Cc5ccc(O)c6c5[C@@]3(CCN4CC3CC3)[C@H]2O6)cc1 [Naltrexone-3-NB590] | 1.35 | 1.30 | –
Cc1cc2c(s1)Nc1ccccc1N=C2N1CCN(CCCNC(=O)CCOCCOCCOCCOCCNC(=O)CCc2ccc3n2[B-](F)(F)[N+]2=C(c4ccc[nH]4)C=CC2=C3)CC1 [Olanzapine-a-2-NB590] | 1.01 | 1.21 | –
O=C(CCc1ccc2n1[B-](F)(F)[N+]1=C(c3ccc[nH]3)C=CC1=C2)NCc1ccc(C(=O)NCCOCCOCCNCC(O)COc2cccc3ccccc23)cc1 (stereo not drawn) [Propranolol-3-NB590] | – | – | NanoBRET Fold Response (HTR1F, 0.1μM): 1.08; NanoBRET Fold Response (HTR1F, 1μM): 0.99
O=C(CCc1ccc2n1[B-](F)(F)[N+]1=C(c3ccc[nH]3)C=CC1=C2)NCCOCCOCCNC(=O)OCCOCCN1CCN(C2=Nc3ccccc3Sc3ccccc32)CC1 [Quetiapine-a-2-NB590] | 1.01 | 0.95 | –
Cc1nc2n(c(=O)c1CCN1CCC(c3noc4cc(F)ccc34)CC1)CCCC2OC(=O)NCCOCCOCCOCCOCCNC(=O)CCc1ccc2n1[B-](F)(F)[N+]1=C(c3ccc[nH]3)C=CC1=C2 (stereo not drawn) [Risperidone-2-NB590] | 0.98 | 1.07 | –
CC(C)N(CC[C@H](c1ccccc1)c1cc(CCNC(=O)CCOCCOCCOCCOCCNC(=O)CCc2ccc3n2[B-](F)(F)[N+]2=C(c4ccc[nH]4)C=CC2=C3)ccc1O)C(C)C [Tolterodine-2-NB590] | 0.90 | 1.13 | –
CC(C)N(CC[C@H](c1ccccc1)c1cc(CCNC(=O)c2ccc(CNC(=O)CCc3ccc4n3[B-](F)(F)[N+]3=C(c5ccc[nH]5)C=CC3=C4)cc2)ccc1O)C(C)C [Tolterodine-BZ-NB590] | 1.24 | 1.63 | –
CCCn1c(=O)c2[nH]c(-c3ccc(OCC(=O)NCCNC(=O)CCOCCNC(=O)c4ccc(CNC(=O)CCc5ccc6n5[B-](F)(F)[N+]5=C(c7ccc[nH]7)C=CC5=C6)cc4)cc3)nc2n(CCC)c1=O [XAC-3-NB590] | 1.07 | 1.05 | –
